Test results reported in patent US11773129B2, “Methods of preventing or treating atherosclerosis with inhibitors of specific isoenzymes of human neuraminidase” (THE GOVERNORS OF THE UNIVERSITY OF ALBERTA, priority 2017, dated 2023).

Assays:
Type in all cases: biochemical
[1] = system: NEU1, NEU2, NEU3, NEU4; test: Isoenzyme specificity/selectivity from 4MU-NANA IC50 across the four human neuraminidases; conditions: isoenzyme(s) the compound is specific for; dual (bispecific) when ratio of IC50 is about 3 or less
[2] = biological target: T1, NEU4 (Homo sapiens, UniProt Q8WWR8); test: IC50 inhibition assay using 4MU-NANA as the substrate, NEU4; parameters: GST; made in house; host or cells: E. coli; conditions: 4MU-NANA as the substrate; read-out: IC50 NEU4
T1 sequence (Q8WWR8 1-484): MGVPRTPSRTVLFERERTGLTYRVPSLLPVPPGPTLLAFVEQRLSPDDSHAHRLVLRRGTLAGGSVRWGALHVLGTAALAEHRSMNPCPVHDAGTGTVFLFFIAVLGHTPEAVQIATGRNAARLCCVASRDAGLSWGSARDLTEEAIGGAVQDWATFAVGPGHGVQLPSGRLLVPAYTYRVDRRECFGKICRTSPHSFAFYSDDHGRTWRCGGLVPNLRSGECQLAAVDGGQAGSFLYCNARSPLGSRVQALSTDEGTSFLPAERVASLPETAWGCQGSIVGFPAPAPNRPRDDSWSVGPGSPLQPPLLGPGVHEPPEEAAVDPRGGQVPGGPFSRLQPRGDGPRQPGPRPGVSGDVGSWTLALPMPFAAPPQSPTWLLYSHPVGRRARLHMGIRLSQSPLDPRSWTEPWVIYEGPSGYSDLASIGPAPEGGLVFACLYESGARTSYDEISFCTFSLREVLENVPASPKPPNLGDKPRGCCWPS

[3] = biological target: T2, NEU1 (Homo sapiens, UniProt Q99519); test: IC50 inhibition assay using 4MU-NANA as the substrate, NEU1; conditions: 4MU-NANA as the substrate; read-out: IC50 NEU1
T2 construct: made in house; host or cells: HEK293 (lentiviral transduction), crude lysate
Protocol: Two weeks after transduction cells were harvested and a crude lysate showing ˜200 nmol/h mg of sialidase activity used in experiments.
Assays were performed with duplicates for each point and IC50 was obtained by plotting the data with Graphpad™ Prism 5.0.

[4] = biological target: T3, NEU3 (Homo sapiens, UniProt Q9UQ49); test: IC50 inhibition assay using 4MU-NANA as the substrate, NEU3; parameters: MBP (N); made in house; host or cells: E. coli; conditions: 4MU-NANA as the substrate; read-out: IC50 NEU3
T3 sequence (Q9UQ49 1-428): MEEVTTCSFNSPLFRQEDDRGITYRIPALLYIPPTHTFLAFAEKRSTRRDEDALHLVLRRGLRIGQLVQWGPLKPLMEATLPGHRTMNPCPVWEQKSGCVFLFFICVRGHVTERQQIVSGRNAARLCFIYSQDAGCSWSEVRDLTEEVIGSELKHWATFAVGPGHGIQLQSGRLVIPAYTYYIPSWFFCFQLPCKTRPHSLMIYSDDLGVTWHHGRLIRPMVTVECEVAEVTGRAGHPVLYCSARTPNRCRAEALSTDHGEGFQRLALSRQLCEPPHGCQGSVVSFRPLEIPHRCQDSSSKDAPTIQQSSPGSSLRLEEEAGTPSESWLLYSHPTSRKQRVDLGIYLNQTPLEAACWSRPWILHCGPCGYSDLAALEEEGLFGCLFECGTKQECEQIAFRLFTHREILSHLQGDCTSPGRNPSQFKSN

Target [1] | IC50 [2] [µM] | IC50 [3] [µM] | IC50 [4] [µM] | SMILES
NEU1 | 150 ± 40 | 6.9 ± 0.4 | 170 ± 40 | O=C(O)C1=C[C@H](O)[C@@H](NC(=O)C2CC2)[C@H]([C@H](O)[C@H](O)CO)O1 [compound 37, 5-Cyclopropanecarboxamido-2,6-anhydro-3,5-dideoxy-D-glycero-D-galacto-non-2-enonic acid]
NEU1 | 81 ± 15 | 12 ± 2 | 100 ± 20 | O=C(O)C1=C[C@H](O)[C@@H](NC(=O)C2CCC2)[C@H]([C@H](O)[C@H](O)CO)O1 [compound 38, 5-Cyclobutanecarboxamido-2,6-anhydro-3,5-dideoxy-D-glycero-D-galacto-non-2-enonic acid]
NEU1 | > 500 | 11 ± 1 | 480 ± 100 | O=C(O)C1=C[C@H](O)[C@@H](NC(=O)c2ccccc2)[C@H]([C@H](O)[C@H](O)CO)O1 [compound 39, 5-Benzamido-2,6-anhydro-3,5-dideoxy-D-glycero-D-galacto-non-2-enonic acid]
NEU2 | 300 ± 60 | > 500 | > 500 | O=C(Cn1cc(-c2ccc(C(F)(F)F)cc2)nn1)N[C@@H]1C(O)C=C(C(=O)O)OC1C(O)C(O)CO (stereo partly shown) [compound 41]
NEU2 | 400 ± 160 | > 500 | > 500 | O=C(Cn1cc(-c2ccc(C(=O)O)cc2)nn1)N[C@@H]1C(O)C=C(C(=O)O)OC1C(O)C(O)CO (stereo partly shown) [compound 43]
NEU2 | 87 ± 14 | > 500 | > 500 | COc1ccc(-c2cn(CC(=O)N[C@@H]3C(O)C=C(C(=O)O)OC3C(O)C(O)CO)nn2)cc1 (stereo partly shown) [compound 44]
NEU2 | 100 ± 20 | > 500 | 240 ± 40 | O=C(Cn1cc(-c2ccc(F)cc2)nn1)N[C@@H]1C(O)C=C(C(=O)O)OC1C(O)C(O)CO (stereo partly shown) [compound 45]
NEU1/ NEU2/ NEU3/ NEU4 | 36 ± 5 | 110 ± 10 | 46 ± 7 | CN(C)c1ccc(-c2cn(CC(=O)N[C@@H]3C(O)C=C(C(=O)O)OC3C(O)C(O)CO)nn2)cc1 (stereo partly drawn) [compound 47, 5-(2-(4-(4-(dimethylamino)phenyl-1H-1,2,3-triazol-1-yl)acetamido))-2,3,5-trideoxy-D-glycero-D-galacto-2-nonulopyranosonic acid]
NEU2 | > 500 | > 500 | > 500 | CC(=O)Nc1ccc(-c2cn(CC(=O)N[C@@H]3C(O)C=C(C(=O)O)OC3C(O)C(O)CO)nn2)cc1 (stereo partly shown) [compound 48]
NEU1 | 310 ± 30 | 9.9 ± 1.3 | 39 ± 8 | CCCCCCC(=O)NCC(O)C(O)C1OC(C(=O)O)=CC(O)[C@H]1NC(C)=O (stereo partly drawn) [compound 52, 5-Acetamido-9-heptanamido-2,6-anhydro-3,5-dideoxy-D-glycero-D-galacto-non-2-enonic acid]
NEU1 | 150 ± 50 | 3.2 ± 0.3 | 54 ± 6 | CC(=O)N[C@@H]1C(O)C=C(C(=O)O)OC1C(O)C(O)CNC(=O)CCC(C)C (stereo partly drawn) [compound 55, 5-Acetamido-9-(4-methylpentanamido)-2,6-anhydro-3,5-dideoxy-D-glycero-D-galacto-non-2-enonic acid]
NEU1 | 150 ± 10 | 2.5 ± 0.3 | 34 ± 5 | CC(=O)N[C@@H]1C(O)C=C(C(=O)O)OC1C(O)C(O)CNC(=O)c1ccccc1 (stereo partly drawn) [compound 56, 5-Acetamido-9-benzamido-2,6-anhydro-3,5-dideoxy-D-glycero-D-galacto-non-2-enonic acid]
NEU1 | > 500 | 1.5 ± 0.2 | > 500 | CCCCC(=O)NCC(O)C(O)C1OC(C(=O)O)=CC(O)[C@H]1NC(=O)CCCC (stereo partly drawn) [compound 57, 5-Pentanamido-9-pentanamido-2,6-anhydro-3,5-dideoxy-D-glycero-D-galacto-non-2-enonic acid]
NEU1 | 24 ± 6 | 1.9 ± 0.4 | 7.2 ± 1.2 | CC(=O)Nc1ccc(C(=O)NC[C@@H](O)[C@@H](O)[C@@H]2OC(C(=O)O)=C[C@H](O)[C@H]2NC(C)=O)cc1 [compound 58, 5-Acetamido-9-(4-acetamido)benzamido-2,6-anhydro-3,5-dideoxy-d-glycero-d-galacto-non-2-enonic acid]
NEU1/ NEU3 | 210 ± 80 | 29 ± 5 | 31 ± 6 | CC(=O)N[C@H]1[C@H]([C@H](O)[C@H](O)CNC(=O)c2ccc(N)cc2)OC(C(=O)O)=C[C@@H]1O [compound 59, 5-Acetamido-9-(4-amino)benzamido-2,6-anhydro-3,5-dideoxy-b-glycero-D-galacto-non-2-enonic acid]
NEU1/ NEU3 | 52 ± 9 | 6.5 ± 1.1 | 7.1 ± 0.7 | CC(=O)Nc1cccc(C(=O)NC[C@@H](O)[C@@H](O)[C@@H]2OC(C(=O)O)=C[C@H](O)[C@H]2NC(C)=O)c1 [compound 60, 5-Acetamido-9-(3-acetamido)benzamido-2,6-anhydro-3,5-dideoxy-d-glycero-d-galacto-non-2-enonic acid]
NEU1 | 150 ± 40 | 6.5 ± 0.7 | 35 ± 6 | CC(=O)N[C@H]1[C@H]([C@H](O)[C@H](O)CNC(=O)c2cccc(N)c2)OC(C(=O)O)=C[C@@H]1O [compound 61, 5-Acetamido-9-(3-amino)benzamido-2,6-anhydro-3,5-dideoxy-b-glycero-D-galacto-non-2-enonic acid]
NEU3/ NEU4 | 46 ± 13 | 240 ± 70 | 31 ± 5 | CC(=O)Nc1ccc(C(=O)NCCCCC(=O)NC[C@@H](O)[C@@H](O)[C@@H]2OC(C(=O)O)=C[C@H](O)[C@H]2NC(C)=O)cc1 [compound 62, 5-Acetamido-9-(5-(4-acetamidobenzamido))pentanamido-2,6-anhydro-3,5-dideoxy-d-glycero-d-galacto-non-2-enonic acid]
NEU1 | > 500 | 4.3 ± 0.8 | > 500 | CCCCCC(=O)NC[C@@H](O)[C@@H](O)[C@@H]1OC(C(=O)O)=C[C@H](O)[C@H]1NC(=O)CCCCC [compound 64, 5-Hexanamido-9-hexanamido-2,6-anhydro-3,5-dideoxy-d-glycero-d-galacto-non-2-enonic acid]
NEU1 | 190 ± 70 | 1.6 ± 0.2 | > 500 | CCCCC(=O)NC[C@@H](O)[C@@H](O)[C@@H]1OC(C(=O)O)=C[C@H](O)[C@H]1NC(=O)CC [compound 65, 5-Propionamido-9-pentanamido-2,6-anhydro-3,5-dideoxy-D-glycero-D-galacto-non-2-enonic acid]
NEU1 | > 500 | 1.2 ± 0.1 | > 500 | CCCCCC(=O)N[C@H]1[C@H]([C@H](O)[C@H](O)CNC(=O)CCC)OC(C(=O)O)=C[C@@H]1O [compound 70, 5-Hexanamido-9-butanamido-2,6-anhydro-3,5-dideoxy-D-glycero-D-galacto-non-2-enonic acid]

SMILES | Target [1] | IC50 [2] [µM] | IC50 [3] [µM] | IC50 [4] [µM]
CCCCCC(=O)NC[C@@H](O)[C@@H](O)[C@@H]1OC(C(=O)O)=C[C@H](O)[C@H]1NC(=O)CC [compound 66, 5-Propionamido-9-hexanamido-2,6-anhydro-3,5-dideoxy-D-glycero-D-galacto-non-2-enonic acid] | NEU1 | 210 ± 90 | 1.4 ± 0.2 | 260 ± 70
